This is an account of results in patent US5098996A, “Process for introducing fluorine into biologically active materials” (The United States of America as represented by the …, priority 1988, dated 1992).

Test [1] deals with insulin-antibody. Kind of test: insulin-antibody binding assay. How it is done: N^α,A1,N^ε,B29 (BOC)2 insulin, 537 mg, […], was dissolved in 500 ml DMSO. FMB-Gly-OAS, 120 mg, 390 mmole in 20 ml DMSO, and 24.5 mg, 390 mmole in 2.5 ml DMSO , and 4-ethyl morpholine, 100 mg, 870 mmole in 10 ml DMSO, were added, and the reaction was allowed to remain at rom temperature for eighteen hours. The reaction was monitored by RP-HPLC until completion. One pure product was obtained, Rt=26 minutes . The eluting solvents were A, 0.1% TFA in water; B, 0.1% TFA in acetonitrile. Elution was made from 25% B to 80% in 45 minutes. The solution was lyophilized, and 50 ml neat TFA was added for five minutes, and then evaporated. The product reacted in an insulin-antibody binding assay.

Test [2] has as its target T1, substance P receptor (Rattus norvegicus, UniProt P14600).
T1 construct: from tissue; host or cells: rat brain (per the earlier reading)
Kind of test: competitive binding assay, substance P receptor, rat brain.

T1 sequence (P14600 whole entry): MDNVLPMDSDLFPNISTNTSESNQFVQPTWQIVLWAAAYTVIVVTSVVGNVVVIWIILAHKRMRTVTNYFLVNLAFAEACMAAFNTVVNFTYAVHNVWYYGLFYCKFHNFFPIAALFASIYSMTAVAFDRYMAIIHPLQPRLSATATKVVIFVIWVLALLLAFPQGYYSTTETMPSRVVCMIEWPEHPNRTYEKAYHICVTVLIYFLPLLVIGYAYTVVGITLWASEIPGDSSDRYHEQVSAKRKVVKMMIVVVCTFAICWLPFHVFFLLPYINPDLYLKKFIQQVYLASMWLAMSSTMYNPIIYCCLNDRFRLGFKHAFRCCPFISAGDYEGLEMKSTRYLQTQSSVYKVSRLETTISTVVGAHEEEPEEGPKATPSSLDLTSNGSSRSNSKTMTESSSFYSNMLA

“FMB-Gly-Insulin: Insulin acylated with FMB-Gly active ester from N^α,A1,N^ε,B29 (BOC)2 insulin, then TFA deprotected”: the “reaction in insulin-antibody binding assay” value in test [1] is reported as “reacted”.

For orientation: Ki means a measure of affinity in units of concentration, obtained from inhibition or displacement. Higher therefore signals a looser hold on the target. “N^αFMBArgProLysProGlnGlnPhePheGlyLeuMetNH2 [Compound 29]”: the Ki in test [2] was 1 nM.
